According to patent publication US9314474B2, “Formulations of 14-epi-analogues of vitamin D” (HYBRIGENICS, SA, priority 2010, dated 2016):
Where two headings read alike, the source gives them in different places.

Key:
[1] = humans, previously determined; cited from earlier work
[2] = human volunteers, cited from earlier work
[3] = in vivo; cited from earlier work
[4] = Maximal tolerated dose in humans; assay type: in vivo, human; conditions: oral
[5] = in vivo
From the text: Inecalcitol is a synthetic derivative of calcitriol, the natural active metabolite of vitamin D3.

[6] = rats; cited from earlier work
[7] = in vivo; cited from earlier work; remark: listed apart in the source
[8] = cynomolgus monkey, in vivo, po
Method: Male cynomolgus monkey received a single oral administration of a high dose of inecalcitol (2 mg/kg) in the same volume (5 ml/kg) for each excipient. Blood samples were drawn at the time of administration (To) and 15, 30, 45, 60, 90 minutes, 3, 6, 9 and 24 hours later. Plasma aliquots were prepared on heparinized tubes and unchanged inecalcitol was specifically assayed by HPLC/MS/MS method.

## C=C1/C(=C\C=C2/CCC[C@]3(C)[C@@H]([C@H](C)CCCC(C)(C)O)CC[C@@H]23)C[C@@H](O)C[C@@H]1O [calcitriol, 1,25-dihydroxy-cholecalciferol]
[1]
  maximal tolerated dose: 45 μg once a week

## C=C1CC[C@H](O)C/C1=C/C=C1\CCC[C@]2(C)[C@@H]([C@H](C)CCCC(C)C)CC[C@@H]12 [cholecalciferol]
[2]; fasting state
  bioavailability from arachis oil capsules versus MCT capsules: about twice higher
[2]; given with a standard meal
  bioavailability from arachis oil capsules versus MCT capsules: no difference was observed

## C[C@H](CC#CC(C)(C)O)[C@H]1CC[C@@H]2/C(=C/C=C3C[C@@H](O)C[C@H](O)C3)CCC[C@@]21C [inecalcitol, 19-nor-9,10-seco-14βH-cholesta-5(Z),7(E)-dien-23-ino-1α,3β,25-triol-23-yne]
[3]
  calcemic effects compared with calcitriol: markedly lower calcemic effects
[4]
  maximal tolerated dose: 4 mg per day
[5]
  calcemic activity: very low calcemic activity

## C=C1/C(=C\C=C2/CCC[C@]3(C)[C@@H]([C@H](C)/C=C/C=C/C(O)(CC)CC)CC[C@@H]23)C[C@@H](O)C[C@@H]1O [seocalcitol]
[6]
  bioavailability, LCT- versus MCT-based formulations: no difference was observed
[7]
  bioavailability of complex system versus simple solutions in MCT or LCT: without any improvement in bioavailability

## Sunflower oil
[8]
  absorption of inecalcitol compared with MCT (in words): better absorbed
[8]; 2 mg/kg
  AUC0-24 h (%): 132%
  Cmax (−fold): 3.0 fold
  Tmax: 1.5 h

## elocalcitol
[1]
  maximal tolerated dose: 150 μg per day
